Measured values as given in publication PMC9959553, “Promising Antifungal Molecules against Mucormycosis Agents Identified from Pandemic Response Box®: In Vitro and In Silico Analyses” (Journal of Fungi, 2023).
Converted amounts (≈) assume the structure as drawn. “And” between values parts separate entries of the source, which are not always exact repeats. Equal values may be shown once.

Legend:
[1] = system: R. oryzae preformed biofilm; assay: Preformed biofilm assay; format: cell-based, Rhizopus oryzae; details: for Selectivity Index (SI), Preformed Biofilm: R. oryzae, based on biofilm viability parameter
Experimental: (§1) For the preformed biofilm assay, cells were cultured as described above in the absence of the compounds. […] An additional incubation of 24 h at 37 °C was performed to evaluate the anti-biofilm activity. Evaluation of both biofilm formation and preformed biofilms was performed using three parameters as previously described. Crystal violet, safranin and XTT assays were used to analyze the overall biomass, extracellular matrix and metabolic activity, respectively.

[2] = system: R. microsporus preformed biofilm; assay: Preformed biofilm assay; format: cell-based, Rhizopus microsporus; details: for Selectivity Index (SI), Preformed Biofilm: R. microsporus, based on biofilm viability parameter
Experimental: as §1

[3] = Cytotoxicity assay (neutral red); format: cell-based, murine; details: mouse, RAW 264.7 macrophage cells
Experimental: Cytotoxicity of alexidine, MMV1580844, MMV642550 and MMV019724 was performed using three cell lineages: RAW 264.7, a murine macrophage culture; A549, adenocarcinomic human alveolar basal epithelial cells; and HaCaT, a spontaneously transformed aneuploid immortal keratinocyte cell line from adult human skin. Cells were grown in DMEM (Dulbecco’s Modified Eagle’s Medium, Sigma-Aldrich, MO, USA), supplemented with 10% fetal bovine serum and incubated for 48 h at 37 °C with 5% CO2 in the presence of serially diluted concentrations (0.3–50 μM) of each compound. Cell viability was measured using the neutral red (NR) assay and quantified using a spectrophotometer at 595 nm (SpectraMax® i3x, Molecular Devices®, San José, CA, USA).

[4] = system: Cryptococcus species; details: cited from earlier work
[5] = system: R. microsporus; assay: Antifungal susceptibility testing (broth microdilution, MIC and MFC); format: cell-based, Rhizopus microsporus var. microsporus; details: for Selectivity Index (SI), Planktonic Cell: R. microsporus, from CC50 and MIC50 of planktonic cells; for MIC50 / MFC: Rhizopus microsporus, 48 h; for MIC50: lowest concentration that inhibits 50% of fungal growth; for MFC: subculture in drug-free medium
Experimental: The susceptibility of the Rhizopus species to MMV396785 (alexidine), MMV1580844, MMV642550 and MMV019724 was determined using the broth microdilution method, according to EUCAST protocols, with modifications. Posaconazole and amphotericin B were also used as reference antifungal drugs because they are commonly used for the treatment of mucormycosis. […] A standardized suspension of conidia (2 × 10^5/mL) was added to the wells and incubated for 48 h at 37 °C, in a 5% CO2 atmosphere. Fungal growth was analyzed via spectrophotometry readings at 600 nm and cell viability was assessed using the XTT reduction assay. Minimum inhibitory concentration (MIC) of each compound was defined as the lowest concentration that inhibits 50% of fungal growth, because these fungi are highly resistant to antifungal drugs and a reduction in half of their growth is relevant. […] MFC values were defined as the lowest drug concentration able to arrest fungal growth.

[6] = system: A549 cell line; set-up: method as in PMID 32560115; details: cited from earlier work
[7] = system: C. auris; details: cited from earlier work
[8] = system: S. brasiliensis; set-up: method as in PMID 36294569; details: cited from earlier work
[9] = system: R. oryzae cells; assay: Analysis of fungal cell alterations with fluorescent staining; format: cell-based, Rhizopus oryzae; details: ½× MIC50, 48 h
Experimental: Alterations of R. oryzae cells caused by alexidine, MMV1580844, MMV642550 and MMV019724 were analyzed using fluorescent staining. Chitin, nucleic acid, oxidative stress, mitochondrial membrane potential and neutral lipid content were evaluated using calcofluor white (Sigma-Aldrich, MO, USA), Sytox Blue (ThermoFisher, Waltham, MA, USA), 2′,7′–dichlorofluorescein diacetate (DCFH-DA) (Sigma-Aldrich, MO, USA), JC-1 probe (ThermoFisher, Waltham, MA, USA) and Nile Red (Sigma-Aldrich, MO, USA), respectively. […] Cells were stained with 25 μg/mL of calcofluor white, 20 μM of Sytox Blue, 50 μg/mL of DCFH-DA, 10 μg/mL of JC-1 or 20 μg/mL of Nile Red, all of them for 1 h at 37 °C in the dark. Samples were washed three times to remove residual dye and suspended in PBS. Fluorescence intensity was measured using the SpectraMax 340 microplate reader (Molecular Devices, San José, CA, USA) under the following conditions: calcofluor white at 350 nm (excitation) and 432 nm (emission); Sytox Blue at 444 nm (excitation) and 480 nm (emission); DCFH-DA at 492 nm (excitation) and 517 nm (emission); JC-1 at 475 nm (excitation) and 529 nm (green fluorescence) or 590 nm (red fluorescence) for the calculation of the red/green fluorescence intensity; and Nile Red at 550 nm (excitation) and 635 nm (emission).

[10] = system: R. oryzae UCP1295; assay: Antifungal drug synergy assay, checkerboard method (FICI); format: cell-based, Rhizopus oryzae; details: Rhizopus arrhizus, UCP1295, 48 h; drug alone; read-out: MIC50 Alone
Experimental: Synergistic interactions were evaluated using the checkerboard method according to EUCAST guidelines (EUCAST 2008). R. oryzae conidia (2 × 10^5/mL) were grown in 96-well plates containing supplemented RPMI in the presence of the following selected compounds: […] An inhibition of at least 50% was defined as the cut-off for minimum inhibitory concentration (MIC). Interactions were determined by the fractional inhibitory concentration index (FICI), which was calculated using the following formula: (MIC combined/MIC drug A alone) + (MIC combined/MIC drug B alone). […] The Bliss independence model calculation was performed according to […] colleagues and Zhao and colleagues. The following formula was used to assess drug interaction: […] The results were classified as follows: synergistic effect when Eobs > Eexp; indifference when Eobs = Eexp; antagonistic effect when Eobs < Eexp.

[11] = system: A549 cells; set-up: method as in PMID 30381356; details: cited from earlier work
[12] = system: R. oryzae biofilm; assay: Biofilm formation assay; format: cell-based, Rhizopus oryzae; details: at MIC
Experimental: Biofilm formation assay was performed according to Rollin-Pinheiro and colleagues. Biofilms were grown on the surface of sterile polystyrene microplates (96-well). Briefly, serial dilutions of selected compounds were prepared in RPMI 1640 medium (8–¼× MIC) and deposited in 100 µL aliquots in microplate wells. Subsequently, 100 µL containing 10^5 Rhizopus conidia in RPMI 1640 medium was added to each well and incubated for 48 h at 37 °C.
as §1

[13] = system: HUVEC; set-up: method as in PMID 30381356; details: cited from earlier work
[14] = preformed biofilm, 24 h treatment

| SMILES | Selectivity Index (SI), Preformed Biofilm [2] | CC50 at 48 h [3] | Selectivity Index (SI), Planktonic Cell [5] | MIC50 [5] | MFC [5] | IC50 [6] | chitin content (calcofluor white) [9] | mitochondrial membrane potential (JC-1) [9] | neutral lipids (Nile Red) [9] | MIC [10] | other results |
| --- | --- | --- | --- | --- | --- | --- | --- | --- | --- | --- | --- |
| Oc1c(C(Nc2nc3ccccc3s2)c2ccc(OC(F)F)cc2)ccc2cccnc12 (stereo not drawn) [MMV019724] | >40 | > 50 µM | >40 | 1.25 µM (≈ 0.562 µg/mL) | > 20 µM | 6.2 µM | lower levels | mitochondrial alterations | lower levels | 0.63 µM | Selectivity Index (SI), Preformed Biofilm [1]: >10; concentration able to inhibit 90% of growth [4]: 5 µM; concentration able to inhibit 90% of growth [7]: 2.5 µM; concentration that inhibits 50% [8]: 0.25 µM |
| CCc1nc(N)nc(N)c1C#CC(C)c1cc(OC)cc(-c2ccncc2)c1 (stereo not drawn) [MMV1580844] | >156.3 | > 50 µM | >625 | 0.08 µM (≈ 0.0299 µg/mL) | > 20 µM | > 10 µM | – | depolarization of mitochondrial membranes | – | 0.08 µM | oxidative stress, ROS (DCFH-DA) [9]: induced oxidative stress |
| CCCCC(CC)CNC(=N)NC(=N)NCCCCCCNC(=N)NC(=N)NCC(CC)CCCC (stereo not drawn) [MMV396785, Alexidine, reference compound] | – | > 50 µM | – | 1.25 µM (≈ 0.636 µg/mL) | 1.25 µM (≈ 0.636 µg/mL) | – | reduction | did not affect | reduction | 1.25 µM | Selectivity Index (SI), Preformed Biofilm ([1]; listed as Alexidina MMV396785): >20; concentration giving significant decrease in biofilm parameters [1, 14]: 2 × MIC; Selectivity Index (SI), Preformed Biofilm ([2]; listed as Alexidina MMV396785): >20; concentration giving significant decrease in biofilm parameters [2, 14]: 2 × MIC; concentration that damaged cells [11]: 14.7 µg/mL and 28.89 µM; biofilm biomass, extracellular matrix and viability decreased to [12]: 25%; Selectivity Index (SI), Planktonic Cell ([5]; listed as Alexidina MMV396785): >40; concentration that damaged cells [13]: 14.7 µg/mL and 28.89 µM; DNA content (Sytox blue) [9]: reduction |
